This note sets out measurements from paper PMC7819857, “Identification of Inhibitors of Integrin Cytoplasmic Domain Interactions With Syk” (Frontiers in Immunology, 2021).

Experiment [1] addresses T1, pITAM : Syk tandem SH2 domains (GST-Syk(6-370)) (Homo sapiens, UniProt P43405).
T1 construct: made in house; host or cells: E. coli BL21(DE3)
As to the kind of experiment: pITAM-Syk AlphaScreen. As to conditions: read-out: IC50, inhibition of pITAM-Syk binding. The source says: (§1) Figure 6 Selective inhibition of integrin signaling by ceftazidime. (A) Schematic illustration of the pITAM-Syk AlphaScreen used to test antagonist selectivity. (B) Comparison between ceftazidime (Ctaz) and pITAM peptide inhibition of pITAM-Syk binding in the AlphaScreen assay described in (A). […] Data are expressed as mean ± range from duplicate determinations. One of four representative assays is shown. (C) Effect of ceftazidime on Syk kinase activity. Ceftazidime (Ctaz) or Syk inhibitor P505-15 was used at 100 uM. Kinase activity is expressed as percent of maximum signal. Data are expressed as mean ± SEM (n = 3). **p < 0.01 (D) Selective effects of ceftazidime on integrin signaling. […] Phosphorylation of Syk (left and right panel) and Pyk-2 (center panel) was analyzed by immunoprecipitation and western blot. […] Quantification is shown below (left panel, n = 5; center panel, n = 3; right panel, n = 3), normalized to phosphorylation in suspension. Results are expressed as the mean ± SEM. […] Expression of interleukin (IL)-1β and monocyte chemoattractant protein (MCP)-1 genes was examined by quantitative real-time polymerase chain reaction. Data are expressed as expression levels relative to control cells kept in suspension. […] P-values were calculated by the Student t test. […]

Experiment [2] has as its target T2, full-length Syk (Homo sapiens, UniProt P43405).
T2 construct: ceftazidime had no effect on the catalytic function of full-length Syk
Kind of experiment: Syk kinase activity assay. It counts as biochemical. As to conditions: 100 uM, 100-fold higher than the AlphaScreen IC50.
Excerpt: as §1
(Bead proximity is the source of the signal in Alpha formats.)

Experiment [3] relates to FcγRI signaling via Syk in THP-1 cells. As to the kind of experiment: FcγRI-crosslinking-induced phosphorylation of Syk in THP-1 cells. Format: cell-based, human. The conditions noted are these: 100 µM loaded cells, anti-FcγRI mAb 276426. How it is done:
Syk phosphorylation assays were performed by immobilizing vascular cell adhesion molecule-1 (VCAM)-1 (3 ug/ml), CS-1-BSA (10 ug/ml), or specific monoclonal antibodies (anti-FcγRI mAb 276426, anti-α4β1 mAb 19H8, anti-β2 mAb 76C3, anti-αvβ3 mAb LM609 all at 5 ug/ml) overnight at 4°C in Tris-HCl pH 7.5, 150 mM NaCl, in 6-well plates (non-tissue culture treated, Becton Dickenson, cat# BD351146). Plates were then blocked with BSA (2% w/v) for 1 h at room temperature. […] After electrophoresis, proteins were transferred to nitrocellulose for 1 h 100 V room temperature, blocked in 5% non-fat milk in TBS-T, and probed with the indicated primary antibody at 1:1,000 overnight at 4°C, followed by species-appropriate HRP secondary antibody (Southern Biotech) at 1:5,000 (30 min at room temperature), and detected using Pierce West Pico (Thermo Scientific cat# 34580). […]
Figure 6 Selective inhibition of integrin signaling by ceftazidime. […] Data are expressed as mean ± range from duplicate determinations. […] Kinase activity is expressed as percent of maximum signal. Data are expressed as mean ± SEM (n = 3). **p < 0.01 (D) Selective effects of ceftazidime on integrin signaling. […] Phosphorylation of Syk (left and right panel) and Pyk-2 (center panel) was analyzed by immunoprecipitation and western blot. […] Results are expressed as the mean ± SEM. […]

In the case of `CC(C)(O/N=C(\C(=O)N[C@@H]1C(=O)N2C(C(=O)[O-])=C(C[n+]3ccccc3)CS[C@H]12)c1csc(N)n1)C(=O)O` [ceftazidime], the IC50 (commonly the concentration at which inhibition is half-maximal) in experiment [1] was above 300 µM. Besides, the “effect on the catalytic function of full-length Syk” value in experiment [2] is “no effect”. Moreover, in experiment [3], the “tyrosine phosphorylation of Syk on FcγRI crosslinking” value is reported as “not inhibited”.
